Assay results taken from patent publication US12391701B2, “Chromene-based compounds, methods and uses thereof” (University of Minho, priority 2019, dated 2025).

How the values were obtained:
[1] = system: MCF-7 cells; assay: Annexin V/PI flow cytometry, MCF-7; format: cell-based, human; conditions: IC50 concentration; 24 h
Source text: In an embodiment, to understand the mechanisms leading to cell death, cells were studied for the induction of apoptosis by flow cytometry. […] Externalization of phosphatidylserine occurs during the early apoptotic events. While annexin V binds to phosphatidylserine, PI stains only cells that have lost their membrane integrity, an experimental procedure which allows the discrimination between viable cells, early apoptotic cells, late apoptotic/necrotic cells or necrotic cells.
In an embodiment, MCF-7, Hs578t and 786-O cells were seeded in 6-well culture plates and allowed to adhere over 18-20 hours in a complete DMEM (for MCF-7 and Hs578t cells) and complete RPMI (for 786-O cells) medium to detect apoptosis via flow cytometry analysis. […] Triplicates were performed in each experiment. Floating and adherent cells were collected and combined by centrifugation. Elimination of the supernatant was followed by addition of 1 mL of Binding Buffer. 8 μL FITC annexin V (556419, BD Pharmingen) and 30 μl of PI (50 μg/mL, P1304MP, Invitrogen) were added to the cell pellet. Samples were incubated in the dark for 15 min at room temperature. A further 200 μL of Binding Buffer was added to each sample. PI signal was measured using FACS LSRII flow cytometer (BD Biosciences®) with 488 nm excitation laser. […] The percentage of cells in each phase was analysed using the FlowJo 7.6 (Tree Star®) software. […]

[2] = system: CAM (chicken chorioallantoic membrane) blood vessels; assay: CAM assay, angiogenesis; format: in vivo; conditions: 2× the IC50 value; after 4 days of treatment
Protocol: In an embodiment, the in vivo capacity of the compounds to inhibit angiogenesis was analysed using the CAM model. To assess the effect on angiogenesis, sterilized 5-mm diameter filter disks were impregnated in culture medium with fixed concentration (2× the IC50 value) of the chromenes MC408 and MC421 or 0.5% DMSO (control group) and were placed onto the vascular area of CAM.
In an embodiment, CAM assay was performed. Fertilized chicken eggs were incubated at 37° C. and at day 3 of development, a window was opened into the eggshell after puncturing the air chamber. The window was sealed with BTK tape and returned to the incubator. On day 9 of development, Hs578t cells (2×10^6 cells) or 786-O cells (3.5×10^6 cells) with Matrigel (10 μL) were placed on CAM, allowing tumor formation and the eggs were tapped and returned to the incubator. At day 14 of development, the tumors were photographed. The treated groups received 20 μL of 2×IC50 concentration of MC408 or MC421 in complete DMEM (for Hs578t cells) or complete RPMI (for 786-O cells) media and the controls received 20 μL of 0.5% DMSO in complete DMEM or RPMI; these were added over the formed tumor. After 72 hours of treatment (day 17 of development), the tumors were photographed again in ovo. Sacrifice of chicken embryos was performed at −80° C. for 10 minutes and the CAM alone was fixed with paraformaldehyde at 4% before being photographed again ex ovo.

[3] = system: 786-O cells; assay: BrdU proliferation assay, 786-O; format: cell-based; conditions: 48 hours; IC50 and ½IC50
Protocol: In an embodiment, the effect of preferred chromene-based compounds on cell proliferation was evaluated. […] Results are presented as mean±SD at least three independent experiments. *p<0.05, **p<0.01, ***p<0.0005, ****p<0.0001 compared to control (0.5% DMSO). The significance of the difference between different groups was determined with Student t test. […] Exceptions are observed for compounds MC409, MC410 and MC368.
In an embodiment, proliferation assay was performed. 786-O cells were plated in 96-well plates at a density of 7000 cells/[…], and allowed to incubate overnight at 37° C. in a 5% CO2 humidified atmosphere. […] After incubation, cells were labelled by addition of 10 μl/well BrdU labelling solution (final concentration: 40 μM BrdU). The cells were then re-incubated for 16 h to allow BrdU to incorporate into the proliferating cell DNA, replacing thymidine. […] The immune complexes were detected by the addition of substrate solution (100 μl/well) and the plate was incubated at room temperature until color development was satisfactory for photometric detection (5-10 min). […] The reaction product was quantified by measuring absorbance at 450 nm (reference wavelength: 690 nm) in microplate reader (Tecan Infinite M200). […] The results of at least three independent experiments (in quadruplicate) were evaluated using GraphPad Prism 5 software.

## COc1cccc2c1Oc1nc(-c3ccc(Br)cc3)[nH]c1C2C1c2cccc(OC)c2Oc2nc(-c3ccc(Br)cc3)[nH]c21 (centres unmarked) [MC421, 2,2′-bis(4-bromophenyl)-5,5′-dimethoxy-1,1,9,9′-tetrahydro-9,9′-bichromeno[2,3-]imidazoles]
[1]
  induction of cell death by apoptosis (annexin V/PI): inducing cell death by apoptosis (early apoptosis)
[2]
  formation of novel blood vessels: decreased
  pre-existing blood vessels: disruption

## COc1cccc2c1Oc1nc(-c3ccc(Br)cc3)[nH]c1C2 [MC408, 2-(4-bromophenyl)-5-methoxy-3,9-dihydrochromeno[2,3-d]imidazoles]
[1]
  induction of cell death by apoptosis (annexin V/PI): inducing cell death by apoptosis (early apoptosis)
[2]
  formation of novel blood vessels: decreased
  pre-existing blood vessels: disruption

## COc1cccc2c1Oc1nc(-c3ccc(F)cc3)[nH]c1C2 [MC409, 2-(4-fluorophenyl)-5-methoxy-3,9-dihydrochromeno[2,3-d]imidazoles]
[3]
  effect on cell proliferation (BrdU incorporation): Exceptions

## COc1cccc2c1Oc1nc(-c3cc(F)cc(F)c3O)[nH]c1C2 [MC410, 2,4-difluoro-6-(5-methoxy-3,9-dihydrochromeno[2,3-d]imidazol-2-yl)phenol]
[3]
  effect on cell proliferation (BrdU incorporation): Exceptions
